Measurements taken from patent publication US20060052326A1, “Werner's syndrome helicase as a target for anti -HIV/AIDS therapy” (priority 2004, published 2006).

How the values were obtained:
Format in all cases: cell-based
HIV-1 LTR [1] = experiment: HIV-1 LTR-luciferase reporter assay in Jurkat E6.1 T-cells; settings: Jurkat E6.1 lymphocytes
Description: To determine the influence of the WRN helicase upon HIV-1 LTR transcriptional activation in CD4^+ lymphocytes, Jurkat E6.1 T-cells were co-transfected with HIV-1 LTR-luciferase (0.5 μg), RSV-HIV-1 Tat (0.5 μg), and increasing amounts of CMV-WRN or CMV-WRNK577M, which expresses a trans-dominant negative helicase-defective mutant (0.25, 0.5, 1.0 μg). Following transfection, the cells were lysed by repeated freeze-thawing and luciferase assays were performed, in duplicate, using equivalent amounts of total cellular proteins.

HIV-1 LTR [2] = experiment: HIV-1 LTR-luciferase reporter assay in co-transfected HeLa cells; settings: for effect on basal HIV-1 LTR transcriptional activity (in words): absence of Tat
Description: To determine whether the WRN or BLM helicases influence HIV-1 transcriptional activity and viral replication, HeLa cells were co-transfected with an HIV-1 LTR-luciferase reporter plasmid (0.5 μg), RSV-HIV-1 Tat (0.5 μg), and increasing amounts of CMV-WRN or CMV-BLM expression constructs (0.25, 0.5, 1.0 μg). Following transfection, the cells were lysed by repeated freeze-thawing and luciferase assays were performed using equivalent amounts of total cellular proteins.
Next, an assay was performed to determine whether WRN-associated helicase activity is required for WRN-mediated trans-activation from the HIV-1 LTR. HeLa cells were co-transfected as in A with the HIV-1 LTR-luciferase reporter plasmid (0.5 μg), RSV-HIV-1 Tat (0.5 μg), or increasing amounts of CMV-WRN and CMV-WRNK577M (a trans-dominant negative helicase-defective mutant) (0.25, 0.5, 1.0 μg) in the absence of HIV-1 Tat expression. Results shown in FIG. 3B are averages from duplicate assays and error bars representing standard deviations between samples are provided.

[3] = system: HIV-1IIIB-infected H9 lymphocytes; experiment: Intracellular p24^Gag immunoblotting in transfected HIV-1IIIB-infected H9 lymphocytes; settings: PHA (10 ng/ml) and hIL-2 (50 U/ml) stimulated, over-expression
Description: The influence of over-expressing wild-type WRN, or trans-dominant-negative WRNK577M, proteins upon HIV-1 replication and the production of intracellular viral structural components was tested in HIV-infected H9 lymphocytes that were stimulated with PHA (10 ng/ml) and human IL-2 (50 U/ml) . HIV-1IIIB-infected H9 lymphocytes were transfected with increasing amounts of CMV-WRN, CMV-WRNK577M, or CMV-green fluorescent protein (GFP) negative control (1.0, 3.0 μg) and then stimulated with PHA (10 ng/ml) and hIL-2 (50 U/ml) to induce HIV-1 replication. The HIV-1 p24^Gag major capsid and cellular actin proteins were detected by immuno-blotting using appropriate primary antibodies. Protein expression was quantified using a densitometer and is represented graphically below immunoblotting results shown in FIG. 7A.

H9HIV-1IIIB lymphocytes = experiment: Immunofluorescence-microscopy of p24^Gag in transfected HIV-1-infected H9 lymphocytes; settings: PHA/hIL-2 stimulated, Myc-epitope-tagged protein over-expression
Description: Immunofluorescence-microscopy was next performed to directly assess whether over-expression of Myc-epitope-tagged WRN or the trans-dominant-negative WRNK577M mutant influence HIV-replication and production of p24^Gag in infected H9HIV-1IIIB lymphocytes. HIV-1-infected H9 lymphocytes were transfected with increasing amounts of CMV-WRN, CMV-WRNK577M, or CβF empty vector (0.12, 0.25 μg) and were stimulated with PHA and hIL-2 as described above. Immunofluorescence-microscopy was performed to determine the influence of WRN or WRNK577M over-expression upon production of HIV-1 p24^Gag and viral replication. Expression of Myc-epitope-tagged WRN and WRNK577M proteins in transfected H9 cells was detected using a rabbit anti-Myc polyclonal antibody (Moser M J et al., Nucleic Acids Res. 28:648-654). Production of intracellular HIV-1 p24^Gag capsid protein was detected using a monoclonal anti-HIV-1 p24^Gag antibody. DAPI-staining was performed to visualize nuclei.

HIV-1 LTR^ΔκB = experiment: HIV-1 LTR^ΔκB-luciferase mutant reporter assay in co-transfected HeLa cells; settings: for transcription from the HIV-1 LTR^ΔκB-luciferase construct (in words): absence of Tat
Description: To determine whether the TAR-RNA stem-loop secondary structure is sufficient to support WRN-mediated LTR trans-activation, HeLa cells were co-transfected with an HIV-1 LTR^ΔκB luciferase mutant reporter construct, lacking upstream NF-κB-responsive enhancer sequences (transcription from this construct is principally regulated at the level of elongation by TAR-RNA), RSV-HIV-1 Tat, or increasing amounts of CMV-WRN or CMV-WRNK577M (0.25, 0.5, 1.0 μg). Luciferase assays were performed as described using equivalent amounts of total cellular proteins.
The next experiment was undertaken to determine whether interactions with the Tat protein influence WRN's ability to trans-activate the HIV-1 LTR. […] All experiments were performed in duplicate or triplicate and error bars representative of standard deviations are shown in FIG. 4C.

HIV-1 LTR [4] = experiment: HIV-1 LTR-luciferase / tk-renilla normalized reporter assay in HeLa cells; settings: for Tat-activated HIV-1 LTR luciferase activity with or without WRNK577M: highest concentration of WRNK577M versus Tat alone
Description: (§1) Therefore, we co-transfected immortalized WRN^-I- fibroblasts with a tk-renilla luciferase reporter plasmid (which produces red luminescence as a result of renilla luciferase expression driven by the Herpes Simplex Virus thymidine kinase (tk) minimal gene promoter)(0.5 μg) and an HIV-1 LTR-luciferase reporter construct (which produces green luminescence as a result of firefly luciferase expression driven by the HIV-1 LTR) (0.5 μg), and increasing amounts of RSV-HIV-1 Tat or RSV-HIV-1 TatK28A/K50A (0.15, 0.25, 0.5 μg) in the absence or presence of the trans-dominant negative CMV-WRNK577M mutant (0.5, 1.0 μg). The CMV-WRNK577M trans-dominant-negative helicase-defective mutant was co-expressed in certain experiments to inhibit Tat-activated HIV-1 LTR transcription and endogenous WRN functions in HeLa cells (Bai Y et al., Hum. Genet. 113:337-347). Samples were normalized to yield approximately equivalent renilla-luciferase expression to control for transfection efficiencies and any differences in overall transcription levels between WRN^-I- fibroblasts and HeLa cells. Normalized extracts were then compared to determine basal-level and Tat-activated HIV-1 LTR-luciferase transcription.

HIV-1 LTR^ΔNFκB/ΔTAR = experiment: HIV-1 LTR^ΔNFκB/ΔTAR-luciferase double-mutant reporter assay in HeLa cells
Text: HeLa cells were co-transfected as in A with a double-mutant, HIV-1 LTR^ΔNFκB/ΔTAR-luciferase reporter plasmid, deleted for κB-responsive elements and TAR-RNA sequences, RSV-HIV-1 Tat, CMV-WRN, or CMV-BLM.

HIV-1 LTR [5] = experiment: HIV-1 LTR-luciferase / tk-renilla normalized reporter assay in immortalized WRN^-I- fibroblasts; settings: highest concentration of RSV-HIV-1 Tat
Description: In order to determine whether the WRN helicase is an essential cofactor for HIV-1 transcription and virus replication, basal and Tat-activated LTR-driven transcription were measured in WRN^-I-fibroblasts. These fibroblasts were obtained from Werner's syndrome patients and lack a functional WRN helicase protein (Moser M J et al., Nucleic Acids Res. 28:648-654).
as §1, with “Samples were normalized to yield approximately equivalent renilla-luciferase expression to control for transfection efficiencies and any differences in overall transcription levels between WRN^-I- fibroblasts and HeLa cells. Normalized extracts were then compared to determine basal-level and Tat-activated HIV-1 LTR-luciferase transcription.” left out

[6] = co-expression with Tat, increasing amounts
[7] = highest concentration of RSV-HIV-1 Tat

Molecule	effect on basal HIV-1 LTR transcriptional activity (in words) (HIV-1 LTR [2])	intracellular production of p24^Gag capsid protein / HIV-1 replication (immunoblot) [3]	intracellular p24^Gag (immunofluorescence) (H9HIV-1IIIB lymphocytes)	transcription from the HIV-1 LTR^ΔκB-luciferase construct (in words) (HIV-1 LTR^ΔκB)	Tat-activated HIV-1 LTR luciferase activity with or without WRNK577M (HIV-1 LTR [4])	transcriptional activation of reporter deleted for κB-responsive elements and TAR-RNA (HIV-1 LTR^ΔNFκB/ΔTAR)	also measured
WRNK577M	represses basal transcription to levels below base-line	represses production of the p24^Gag major capsid protein	markedly reduced levels of p24^Gag	did not significantly promote transcription	5,457,345 RLUs	–	effect on Tat's transcriptional activation from the HIV-1 LTR (in words) (HIV-1 LTR [1]; [6]): repressed nearly one-half of Tat's transcriptional activation
WRN helicase: wild-type Werner's syndrome helicase protein, 1432 amino acid residues, expressed from CMV construct	transcriptionally activates the HIV-1 LTR in a dose-dependent manner	significantly higher intracellular production of the p24^Gag major viral capsid protein	increased intracellular p24^Gag	to a level approximately one-half that observed for Tat	–	completely abrogated transcriptional activation	trans-activation by Tat on co-expression of helicase (HIV-1 LTR [1]; [6]): approximately 395 fold; Tat-mediated LTR trans-activation on co-expression of helicase (HIV-1 LTR [2]; co-expression with Tat, increasing amounts of construct): ~60 fold; transcriptional activation from the HIV-1 LTR (HIV-1 LTR [2]; wild-type LTR, factor expressed alone): approx. 10 fold
BLM helicase: BLM DNA-helicase expressed from CMV-BLM construct	does not affect basal HIV-1 LTR transcriptional activity	–	–	no significant influence	–	–	effect on Tat-mediated transcriptional activation (in words) (HIV-1 LTR [2]; co-expression with Tat): does not significantly influence Tat-mediated transcriptional activation
Tat: HIV-1 viral trans-activator protein, 81-101 amino acid residues, expressed from RSV construct	–	–	–	–	14,518,374 RLUs	completely abrogated transcriptional activation	transcriptional activation from the HIV-1 LTR (HIV-1 LTR [1]; Tat alone): approximately 250 fold; Tat trans-activation of HIV-1 LTR (HIV-1 LTR [5]): 0 fold; Tat-activated HIV-1 LTR luciferase activity (HIV-1 LTR [5]): 340 RLUs; Tat-mediated trans-activation from the HIV-1 LTR^ΔκB-luciferase reporter (HIV-1 LTR^ΔκB): 6.5 fold; Tat trans-activation of HIV-1 LTR (HIV-1 LTR [4]; [7]): 22 fold; Tat-activated HIV-1 LTR luciferase activity (HIV-1 LTR [4]; [7]): 14,834,412 RLUs
TatK28A/K50A (protein) MEPVDPRLEPWKHPGSQPKTACTNCYCAKCCFHCQVCFITKALGISYGRAKRRQRRRAHQNSQTHQASLSKQPTSQPRGDPTGPKE	–	–	–	–	–	–	effect on WRN-mediated trans-activation from the HIV-1 TAR-RNA (HIV-1 LTR^ΔκB; co-expression with CMV-WRN): inhibited WRN-mediated trans-activation
